Experimental data: patent US6911524B1 (priority 1999, dated 2005)
Bridge positions count the residues as written; N and C are the ends. Peptide text beside a SMILES is read from it.

Experiments:
Type in all cases: cell-based
[1] = test system: Escherichia coli D31; test: Antibacterial assay, MBC determination; conditions: summary of table 1
Protocol: (§1) The minimum […] concentration (MBC) of the peptides was determined according to the protocol described by HANCOCK et al.
(§2) A series of successive doubling dilutions of the peptides, in an aqueous solution containing 0.01% of acetic acid and 0.2% of bovine serum albumin (BSA), is prepared.
(§3) 10 μl aliquots of each dilution are incubated in sterile 96-well polypropylene microtitration plates, in the presence of 100 μl of bacterial suspension at a starting optical density of A600=0.001, in MUELLER HINTON BROTH liquid medium. The incubation is carried out for 18 h at 37° C. with stirring, except in the case of the marine bacteria, for which the incubation is carried out 25° C. The MBC is determined by plating out, onto solid MUELLER HINTON AGAR medium, the content of the wells corresponding to the first 3 dilutions for which no bacterial growth is observed, and incubating at 37° C. for 18 hours. The lowest concentration of peptide which prevents any residual formation of colonies corresponds to the MBC.

[2] = test system: Micrococcus luteus; test: Antibacterial assay, MBC determination; conditions: summary of table 1
Protocol: as §1, §2, §3

[3] = test system: Fusarium oxysporum; test: Antifungal activity, growth inhibition in liquid phase (MIC); conditions: summary of table 1
Protocol: The antifungal activity was determined by calculating the MIC (minimum inhibitory concentration) in a test of inhibition of Fusarium oxysporum growth in liquid phase, according to the protocol described by FELHBAUM et al. [J. Biol. Chem., 269: 33159-63, (1994)].
A series of successive doubling dilutions of the peptides is prepared as indicated above for determining the antibacterial activity.
80 μl of spores suspended (final concentration 10^4 spores/ml) in Potato Dextrose Broth medium (DIFCO) are added to 10 μl of peptide solution in sterile 96-well polypropylene microtitration plates. The final volume is adjusted to 100 μl by adding water. The growth inhibition is determined after incubation for 24 hours at 25° C. in the dark, by observation under a microscope and measurement of the increase in the OD600. The value of the MIC corresponds to a range (a-b) of peptide concentrations, in which (a) represents the highest concentration at which growth is observed, and (b) represents the lowest concentration which induces 100% growth inhibition.

[4] = test system: Perkinsus marinus; test: Antiprotozoan activity, parasite viability; conditions: Perkinsus marinus in seawater, 1 hour at room temperature, viability by acridine orange / ethidium bromide staining
Protocol: The oyster-parasite protozoan Perkinsus marinus is cultured in DMEM medium (GIBCO), according to the protocol described by GAUTHIER and VASTA [J. Invertebr. Pathol., 66, 156-168, (1995)].
10 μM of purified peptide are added to 4×10^4 P. marinus, in seawater (final volume 20 μl) . The mixture is incubated for 1 hour at room temperature. The viability of the parasites is estimated by staining with acridine orange and with ethidium bromide, as described by MORVAN et al. [J. Invertebr. Pathol., 69, 177-82 (1997)]. The maximum viability is evaluated, as a positive control, in samples to which the peptide has not been added.

Compound	Activity on Escherichia coli compared (in words) [1]	Activity on Micrococcus luteus (in words) [2]	Activity on Fusarium oxysporum compared (in words) [3]	Antiprotozoan activity (biological activity expressed in μM) [4] [μM]
CC(C)C[C@@H]1NC(=O)[C@H](CCCCN)NC(=O)CNC(=O)[C@H](CCCNC(=N)N)NC(=O)[C@H](Cc2c[nH]cn2)NC(=O)[C@H](CC(C)C)NC(=O)[C@H](CC(N)=O)NC(=O)[C@H](CCCNC(=N)N)NC(=O)[C@@H]2CSSC[C@H](NC(=O)[C@@H](NC(=O)[C@H](Cc3c[nH]cn3)NC(=O)[C@@H]3CCCN3C(=O)[C@@H](N)Cc3c[nH]cn3)C(C)C)C(=O)N[C@@H]([C@@H](C)O)C(=O)N[C@@H](CO)C(=O)N[C@@H](Cc3ccc(O)cc3)C(=O)N[C@@H](Cc3ccc(O)cc3)C(=O)N[C@H]3CSSC[C@H](NC1=O)C(=O)N[C@@H](Cc1ccccc1)C(=O)N[C@H]1CSSC[C@H](NC(=O)[C@H](Cc4ccccc4)NC(=O)[C@H](CCCCN)NC(=O)[C@H](CO)NC3=O)C(=O)NCC(=O)N[C@@H]([C@@H](C)O)C(=O)N[C@@H](C)C(=O)NCC(=O)N[C@@H](CSSC[C@@H](C(=O)N[C@@H](CO)C(=O)N[C@@H](CCCNC(=N)N)C(=O)O)NC(=O)[C@H](Cc3c[nH]cn3)NC(=O)[C@H](CC(C)C)NC1=O)C(=O)N[C@@H]([C@@H](C)O)C(=O)N[C@@H](CCCNC(=N)N)C(=O)N[C@@H](Cc1ccc(O)cc1)C(=O)NCC(=O)N2 [Myticin b] (H-HPHVCTSYYCSKFCGTAGCTRYGCRNLHRGKLCFCLHCSR-OH; disulfide 5-24, 10-33, 14-35, 19-38; N-terminus and C-terminus assumed)	more active than the Myticin a peptide	more active than the Myticin a peptide	more active than the Myticin a peptide	>20
CSCC[C@@H]1NC(=O)[C@H](CCCCN)NC(=O)CNC(=O)[C@@H]2CCCN2C(=O)[C@H](Cc2c[nH]cn2)NC(=O)[C@H](CC(C)C)NC(=O)[C@H](C(C)C)NC(=O)[C@H](CCCNC(=N)N)NC(=O)[C@@H]2CSSC[C@H](NC(=O)[C@H](C)NC(=O)[C@H](Cc3c[nH]cn3)NC(=O)[C@H](CO)NC(=O)[C@@H](N)Cc3c[nH]cn3)C(=O)N[C@@H]([C@@H](C)O)C(=O)N[C@@H](CO)C(=O)N[C@@H](Cc3ccc(O)cc3)C(=O)N[C@@H](Cc3c[nH]c4ccccc34)C(=O)N[C@H]3CSSC[C@H](NC1=O)C(=O)N[C@@H](C)C(=O)N[C@H]1CSSC[C@H](NC(=O)[C@H](Cc4ccccc4)NC(=O)[C@H](CCCCN)NC(=O)CNC3=O)C(=O)NCC(=O)N[C@@H]([C@@H](C)O)C(=O)N[C@@H](C)C(=O)N[C@@H](CO)C(=O)N[C@@H](CSSC[C@@H](C(=O)N[C@@H](CO)C(=O)N[C@@H](CCCNC(=N)N)C(=O)O)NC(=O)[C@H](Cc3c[nH]cn3)NC(=O)[C@H](C(C)C)NC1=O)C(=O)N[C@@H]([C@@H](C)O)C(=O)N[C@@H](Cc1c[nH]cn1)C(=O)N[C@@H](Cc1ccc(O)cc1)C(=O)N[C@@H](CC(C)C)C(=O)N2 [Myticin a] (H-HSHACTSYWCGKFCGTASCTHYLCRVLHPGKMCACVHCSR-OH; disulfide 5-24, 10-33, 14-35, 19-38; N-terminus and C-terminus assumed)				>20
